Source: patent publication US12291517B2, “Crystalline form of 6-(cyclopropanecarboxamido)-4-((2-methoxy-3-(1-methyl-1H-1,2,4-triazol-3-yl)phenyl)amino)-n-(methyl-D3) pyridazine-3-carboxamide” (Bristol-Myers Squibb Company, priority 2018, dated 2025)
Like-named read-outs stand apart in the source and are kept apart here. Blank lines part the entries; values can stand above or below the molecule they belong to.

What was measured:
[1] = Dog PK study, pH effect of free base vs. HCl salt; format: in vivo; details: capsule, 10 mg (1 mpk), Penta
[2] = Dog PK study, pH effect of free base vs. HCl salt; format: in vivo; details: for BA Mean / Cmax / Tmax / AUC(0-t): dog, capsule, 10 mg (1 mpk), famotidine treated (Famo); for Cmax / Tmax / AUC(0-t): in vivo, po, 1 mg/kg; for AUC(0-t): read-out: AUC0-24 h Mean
From the text: In famotidine treated dogs, the mean bioavailability of the HCl salt is 60% higher than the free base.

[3] = Micro-dissolution comparative study of potential salts (pH transfer model); format: physicochemical; design: AUC pH 2-6.5 Mean / AUC pH 6-6.5 Mean: unit not given beside the values; details: for pH-effect Ratio: AUC pH 6-6.5 over AUC pH 2-6.5
[4] = Physical and chemical stability of Form B on storage at different temperature and humidity; format: physicochemical
[5] = Moisture sorption isotherm; format: physicochemical
Procedure: Moisture sorption isotherms were collected in a TA Instrument VTI-SA+Vapor Sorption Analyzer using approximately 10 mg of sample. The sample was dried at 60° C. until the loss rate of 0.0005 wt %/min was obtained for 10 minutes. The sample was tested at 25° C. and 3 or 4, 5, 15, 25, 35, 45, 50, 65, 75, 85, and 95% RH. Equilibration at each RH was reached when the rate of 0.0003 wt %/min for 35 minutes was achieved or a maximum of 600 minutes.

[6] = Physical and chemical stability of Form B on storage at different temperature and humidity; format: physicochemical; remark: listed apart in the source
Procedure: Samples of Form B of Compound (I) were stored at different conditions of temperature and humidity for 4 weeks. The physical stability, characterized by DSC, TGA, and PXRD, were measured at 2 and 4 weeks.

BA Mean [1]: 100.00%
Cmax ([1]; in vivo, po, 1 mg/kg): 122 ng/mL
Tmax ([1]; in vivo, po, 1 mg/kg): 2.5 h
AUC(0-t) ([1]; in vivo, po, 1 mg/kg, read-out: AUC0-24 h Mean): 975 ng·h/mL
BA Mean [2]: 85.44%
Cmax [2]: 62.8 ng/mL
Tmax [2]: 3.5 h
AUC(0-t) [2]: 586 ng·h/mL
pH-effect Ratio [3]: 0.27
AUC pH 2-6.5 Mean [3]: 6094.11
AUC pH 6-6.5 Mean [3]: 1640.60
SMILES: [2H]C([2H])([2H])NC(=O)c1nnc(NC(=O)C2CC2)cc1Nc1cccc(-c2ncn(C)n2)c1OC [Compound (I), 6-(cyclopropanecarboxamido)-4-((2-methoxy-3-(1-methyl-1H-1,2,4-triazol-3-yl)phenyl)amino)-N-(methyl-d3)pyridazine-3-carboxamide]

% Assay ([4]; 5° C., 1 Month, corrected for water and total volatiles): 100.3%
% Assay ([4]; 5° C., 2 weeks): 98.31%
% Assay ([4]; 5° C., 3 Months, corrected for water and total volatiles): 100.9%
% Assay ([4]; 5° C., 4 weeks): 98.40%
% Assay ([4]; 5° C., 6 Months, corrected for water and total volatiles): 100.3%
% Assay ([4]; 5° C., 12 Months, corrected for water and total volatiles): 100.2%
% Assay ([4]; 25° C./60% RH (closed), 1 Month, corrected for water and total volatiles): 98.8%
% Assay ([4]; 25° C./60% RH (closed), 3 Months, corrected for water and total volatiles): 100.9%
% Assay ([4]; 25° C./60% RH (closed), 4 weeks): 98.39%
% Assay ([4]; 25° C./60% RH (closed), 6 Months, corrected for water and total volatiles): 99.4%
% Assay ([4]; 25° C./60% RH (closed), 12 Months, corrected for water and total volatiles): 99.9%
% Assay ([4]; 40° C./75% RH (open), 1 Month, corrected for water and total volatiles): 99.8%
% Assay ([4]; 40° C./75% RH (open), 2 weeks): 98.29%
% Assay ([4]; 40° C./75% RH (open), 3 Months, corrected for water and total volatiles): 98.7%
% Assay ([4]; 40° C./75% RH (open), 6 Months, corrected for water and total volatiles): 101.0%
% Assay ([4]; 40° C./75% RH (open), 12 Months, corrected for water and total volatiles): 100.3%
% Assay ([4]; 50° C., 2 weeks): 98.32%
% Assay ([4]; HIL/UV, 2 weeks): 98.44%
% Assay ([4]; −20° C., 1 Month, corrected for water and total volatiles): 99.9%
BA Mean [2]: 160.90%
Cmax [2]: 180 ng/mL
Tmax [2]: 2 h
AUC(0-t) [2]: 1340 ng·h/mL
Mean bioavailability higher than the free base ([2]; famotidine treated dogs, 1 mpk): 60%
pH-effect Ratio [3]: 0.61
AUC pH 2-6.5 Mean [3]: 12345.28
AUC pH 6-6.5 Mean [3]: 7492.66
Hygroscopicity [5]: non-hygroscopic
Moisture uptake ([5]; between 25 to 75% relative humidity at 25° C.): less than 0.5%
% Assay ([6]; 5° C. (control), 2 weeks): 98.32%
% Assay ([6]; 25° C./60% RH (closed), 2 weeks): 98.26%
% Assay ([6]; 40° C./75% RH (open), 4 weeks): 98.37%
% Assay ([6]; 50° C., 4 weeks): 98.40%
% Assay ([6]; HIL/UV, 4 weeks): 98.44%
Chemical stability ([6]; storage conditions of Table 3, up to 4 weeks): no measure change in chemical stability
SMILES: Cl.[2H]C([2H])([2H])NC(=O)c1nnc(NC(=O)C2CC2)cc1Nc1cccc(-c2ncn(C)n2)c1OC [Form B of Compound (I), 6-(cyclopropanecarboxamido)-4-((2-methoxy-3-(1-methyl-1H-1,2,4-triazol-3-yl)phenyl)amino)-N-(methyl-d3)pyridazine-3-carboxamide HCl salt]
Physical stability (physical form) ([4]; by DSC, TGA and PXRD at 2 and 4 weeks, different temperature and humidity conditions): No change in the physical form was detected
Physical or chemical degradation ([4]; tested temperature and humidity conditions): no significant physical or chemical degradation
Mitigation of the pH effect ([3]; comparison of salts): mitigates the pH effect better than MSA and sulfate (SO4) salts

pH-effect Ratio [3]: 0.45
AUC pH 2-6.5 Mean [3]: 12045.08
AUC pH 6-6.5 Mean [3]: 5368.76
SMILES: CS(=O)(=O)O.[2H]C([2H])([2H])NC(=O)c1nnc(NC(=O)C2CC2)cc1Nc1cccc(-c2ncn(C)n2)c1OC [MSA salt]
